Key:
[1] = tested on: Haloperidol-Induced Catalepsy; experiment: Effect on haloperidol-induced catalepsy; format: in vivo, mice; details: 10 mg/kg orally; for Number of the Animals Showing Remission: of five mice, catalepsy score not more than 4 points; for Remission Rate (%): rate of decrease in total score based on control group; for Total Score: total catalepsy score of five mice (25 points at the full), haloperidol 1.0 mg/kg i.p.
Protocol: Haloperidol (Janssen Pharmaceutica) suspended in 0.3% CMC was intraperitoneally administered to each mouse at a dose of 1.0 mg/kg. Test compounds were suspended in 0.3% CMC or in injectable distilled water (Otsuka Pharmaceutical Co., Ltd.) containing Tween 80. L-DOPA (Kyowa Hakko Kogyo Co., Ltd.) and benserazide hydrochloride (Kyowa Hakko Kogyo Co., Ltd.) were suspended in 0.3% CMC. One hour after the haloperidol administration, the test compound suspensions and the control suspension [injectable distilled water (Otsuka Pharmaceutical Co., Ltd.) containing Tween 80] containing no test compound were orally administered to separate groups of the mice (0.1 ml per 10 g of body weight). One hour after the administration of the test compound, the forelimbs of each mouse and subsequently the hindlimbs of the same mouse were placed on a 4.5 cm-high, 1.0 cm-wide bar and catalepsy was estimated. […] The catalepsy score and the standard of judgment are shown below. […] The number of the animals showing remission against catalepsy is the number of the mice for which the catalepsy score was not more than 4 points. […] The ED₅₀ values were calculated by Probit analysis.

[2] = tested on: dd-strain male mice; experiment: Acute toxicity test (minimum lethal dose, oral); format: in vivo; details: oral administration, three mice per group, mortality seven days after administration
Protocol: Test compounds were orally administered to groups of dd-strain male mice weighing 20 ± 1 g, each group consisting of three mice. Seven days after the administration, minimum lethal dose (MLD) of each compound was determined by observing the mortality.

[3] = target: T1, A₂ receptor (Rattus norvegicus, UniProt P30543); experiment: Adenosine A₂ receptor binding test (³H-CGS 21680 binding); details: [^3H]CGS 21680 was used, rat corpus striatum, read-out: A2 Receptor Inhibition (%); for inhibition at 1 µM: 10^-6M; for inhibition at 0.1 µM: 10^-7M
T1 construct: from tissue; host or cells: rat corpus striatum membrane preparation
T1 sequence (P30543 whole entry): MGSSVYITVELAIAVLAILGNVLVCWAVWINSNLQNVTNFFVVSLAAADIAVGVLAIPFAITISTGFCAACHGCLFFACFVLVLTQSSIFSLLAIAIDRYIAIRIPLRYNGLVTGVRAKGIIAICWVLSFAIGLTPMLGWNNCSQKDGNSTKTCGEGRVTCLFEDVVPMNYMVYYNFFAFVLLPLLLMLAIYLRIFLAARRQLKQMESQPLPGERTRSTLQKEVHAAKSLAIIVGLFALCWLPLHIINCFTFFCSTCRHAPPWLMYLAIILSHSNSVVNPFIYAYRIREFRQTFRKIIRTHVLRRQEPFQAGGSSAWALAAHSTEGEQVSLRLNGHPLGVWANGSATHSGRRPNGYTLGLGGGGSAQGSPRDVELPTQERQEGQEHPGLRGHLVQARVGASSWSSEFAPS
Protocol: The similar procedure as in the above-described adenosine A₁ receptor binding test was repeated using rat corpus striatum to obtain the final precipitate of the tissue thereof. The precipitate was suspended in 50 mM Tris HCl buffer containing 10 mM magnesium chloride and 0.02 unit/mg tissue of adenosine deaminase (manufactured by Sigma Co.) to give a tissue concentration of 5 mg (wet weight)/ml.
The similar procedure as above was repeated to determine the radioactivity bound to the A₂ receptors using 50 µl of CGS 21680 labeled with tritium [³H-2-[p-(2-carboxyethyl)-phenethylamino]-5'-(N-ethylcarboxamide)adenosine: 40 Ci/mmol, manufactured by New England Nuclear Co. (J. Pharmacol. Exp. Ther., 251, 888 (1989)] (final concentration: 4.0 nM) in place of 50 µl of the mixture of N-ethylcarboxamidoadenosine labeled with tritium (³H-NECA: 26 Ci/mmol, manufactured by Amersham Co.) (final concentration: 3.8 nM) and cyclopentyladenosine (CPA, manufactured by Sigma Co.) (final concentration: 50 nM).
The inhibition rate of the test compound against the binding of A₂ receptors (³H-CGS 21680 binding) was calculated by the following equation: [formula] [Notes] • 1. "B" means the amount of radioactivity of ³H-CGS 21680 bound in the presence of a test compound at a concentration shown in Table 4. • 2. "T" means the amount of radioactivity of ³H-CGS 21680 bound in the absence of a test compound. • 3. "N" means the amount of radioactivity of ³H-CGS 21680 bound in the presence of 100 µM CPA.

Row | SMILES | Number of the Animals Showing Remission [1] | Remission Rate (%) [1] [%] | Total Score [1] | MLD [2] [mg/kg] | inhibition at 1 µM [3] [%] | inhibition at 0.1 µM [3] [%]
1 | CCn1c(=O)c2c(nc(/C=C/c3ccc(O)cc3)n2C)n(CC)c1=O [Compound 112, (E)-1,3-Diethyl-8-(4-hydroxystyryl)-7-methylxanthine] | 5 | 84 | 4 | > 100 | 95 | 79
2 | CCn1c(=O)c2c(nc(/C=C/c3ccc(OCOC)cc3)n2C)n(CC)c1=O [Compound 82, (E)-1,3-Diethyl-8-(4-methoxymethoxystyryl)-7-methylxanthine] | 5 | 64 | 9 | > 100 | 98 | 86
3 | CCn1c(=O)c2c(nc(/C=C/c3ccc(OC)c(F)c3)n2C)n(CC)c1=O [Compound 103, (E)-1,3-Diethyl-8-(3-fluoro-4-methoxystyryl)-7-methylxanthine] | 3 | 36 | 16 | > 100 | 102 | 75
4 | CCn1c(=O)c2c(nc(/C=C/c3ccc(OCc4ccccc4)cc3)n2C)n(CC)c1=O [Compound 113, (E)-8-(4-Benzyloxystyryl)-1,3-diethyl-7-methylxanthine] | 3 | 24 | 19 | > 100 | 68 | 34
5 | CCn1c(=O)c2c(nc(/C=C/c3cc(C(F)(F)F)cc(C(F)(F)F)c3)n2C)n(CC)c1=O [Compound 86, (E)-8-[3,5-Bis(trifluoromethyl)styryl]-1,3-diethyl-7-methylxanthine] | 3 | 36 | 16 | > 100 | 73 | 29
6 | CCn1c(=O)c2c(nc(/C=C/c3ccc(Br)cc3)n2C)n(CC)c1=O [Compound 78, (E)-8-(4-Bromostyryl)-1,3-diethyl-7-methylxanthine] | 3 | 28 | 18 | > 100 | 89 | 68
7 | CCn1c(=O)c2c(nc(/C=C/c3cccc(OC)c3[N+](=O)[O-])n2C)n(CC)c1=O [Compound 64, (E)-1,3-Diethyl-8-(3-methoxy-2-nitrostyryl)-7-methylxanthine] | 4 | 36 | 16 | > 100 | 94 | 89
8 | CCn1c(=O)c2c(nc(/C=C/c3cccc(F)c3C)n2C)n(CC)c1=O [Compound 109, (E)-1,3-Diethyl-8-(3-fluoro-2-methylstyryl)-7-methylxanthine] | 5 | 84 | 4 | > 100 | 96 | 97
9 | CCn1c(=O)c2c(nc(/C=C/c3cccc([N+](=O)[O-])c3)n2C)n(CC)c1=O [Compound 90, (E)-1,3-Diethyl-7-methyl-8-(3-nitrostyryl)xanthine] | 4 | 44 | 14 | > 100 | 94 | 85
10 | CCn1c(=O)c2c(nc(/C=C/c3ccc(C)cc3)n2C)n(CC)c1=O [Compound 44, (E)-1,3-Diethyl-7-methyl-8-(4-methylstyryl)xanthine] | 3 | 32 | 17 | > 100 | 103 | 64
11 | CCn1c(=O)c2c(nc(/C=C/c3ccc(F)cc3)n2C)n(CC)c1=O [Compound 84, (E)-1,3-Diethyl-8-(4-fluorostyryl)-7-methylxanthine] | 4 | 32 | 17 | > 100 | 100 | 82
12 | CCn1c(=O)c2c(nc(/C=C/c3cccc(Br)c3)n2C)n(CC)c1=O [Compound 92, (E)-8-(3-Bromostyryl)-1,3-diethyl-7-methylxanthine] | 4 | 52 | 12 | > 100 | 103 | 93
13 | CCn1c(=O)c2c(nc(/C=C/c3ccc(O)c(O)c3)n2C)n(CC)c1=O [Compound 110, (E)-8-(3,4-Dihydroxystyryl)-1,3-diethyl-7-methylxanthine] | 3 | 20 | 20 | > 100 | 96 | 61
14 | CCn1c(=O)c2c(nc(/C=C/c3cccc(OC)c3)n2C)n(CC)c1=O [Compound 40, (E)-1,3-Diethyl-8-(3-methoxystyryl)-7-methylxanthine] | 5 | 88 | 3 | > 300 | 98 | 88
